Results on 1 substance are retold here after US6190699A, “Method of incorporating proteins or peptides into a matrix and administration thereof through mucosa” (NZL Corporation, priority 1998, dated 2001).

Read-outs that look alike come from different tables or passages of the source.

The test system of one series is diabetic rabbits. The series can be described thus: Blood glucose levels in alloxan-diabetic rabbits after intravenous or intranasal insulin. The conditions noted are these: intravenous injection, 0.3 and 0.4 U/kg insulin, -30 to 300 minutes (FIG. 1). The format is in vivo, Male New Zealand White rabbits.
For a further series, the system named is rats. The conditions noted are these: cited from earlier work.
The nature of series [1]: Serum insulin levels (radio immune assay) in diabetic rabbits. Conditions: intravenous injection, 0.3 and 0.4 U/kg insulin, diabetic rabbits (FIG. 2).
Procedure: The animals used in this study were Male New Zealand White rabbits weighing approximately 2.5 kg. (Charles River Labs, Amherst, Mass.). The animals were housed individually in cages and given standard animal chow and water. All animals were treated according to the Guiding Principles for Laboratory Animal Care of the American Physiologic Society.
The animals were made diabetic by intravenously injecting 80 mg/kg of Alloxan suspended in isotonic saline solution into the animal. The animals' blood glucose levels were monitored every two to three hours for the first three days. When glucose levels reached 500 mg/dl during the first three days, insulin (0.15 U/kg) was administered.
Prior to the experiment, the animals were fasted for 16 hours. The animals were then anesthetized by intravenously administering 30 mg/kg sodium pentobarbital. Forty minutes following the initial dose of pentobarbital, a second dose (6 mg/kg) was administered to the animals. […]
The animals were placed into groups of 3 to 7 animals for each experiment. […] Blood glucose levels and serum insulin levels were measured for each experiment. […]
Following the blood glucose analysis, serum samples were obtained by centrifuging the blood samples collected at 3000 rpm for 10 minutes. […] Serum insulin levels were determined using radio immune assay kits. […]

With insulin, in the series with diabetic rabbits, the blood glucose levels entry is “showed a fall in blood glucose levels”. In addition, the “increase in concentration of insulin required intranasally to reach plasma glucose levels similar to parenteral administration” value in the series on rats (intranasal vs parenteral) is given as 10 fold. The plasma glucose levels entry with rats (intravenous administration) was “decreased significantly”; in the series on rats (oral administration) it was “only slightly decreased”. The serum insulin levels entry in series [1] is “serum insulin levels increased as the blood glucose levels fell”.
